Values joined by “and” are separate entries in the source; they are usually repeats but may differ in a detail not shown here. Equal values may be shown once. Read-outs that look alike come from different tables or passages of the source.
How the values were obtained:
[1] = test system: HepaRG cells; assay: PA and PANO content in cell culture medium of HepaRG cells upon pharmacological transporter inhibition (LC-MS/MS); format: in vitro ADME, human
[2] = molecular target: T1, SLC22A1 (Homo sapiens, UniProt O15245); assay: ASP+ (SLC22A1 substrate) uptake measurement in HepaRG cells; format: cell-based
T1 construct: For measuring the uptake of ASP^+ in HepaRG cells incubated with PAs; endogenous in cells; host or cells: differentiated HepaRG cells (human hepatoma)
T1 sequence (O15245 1-554): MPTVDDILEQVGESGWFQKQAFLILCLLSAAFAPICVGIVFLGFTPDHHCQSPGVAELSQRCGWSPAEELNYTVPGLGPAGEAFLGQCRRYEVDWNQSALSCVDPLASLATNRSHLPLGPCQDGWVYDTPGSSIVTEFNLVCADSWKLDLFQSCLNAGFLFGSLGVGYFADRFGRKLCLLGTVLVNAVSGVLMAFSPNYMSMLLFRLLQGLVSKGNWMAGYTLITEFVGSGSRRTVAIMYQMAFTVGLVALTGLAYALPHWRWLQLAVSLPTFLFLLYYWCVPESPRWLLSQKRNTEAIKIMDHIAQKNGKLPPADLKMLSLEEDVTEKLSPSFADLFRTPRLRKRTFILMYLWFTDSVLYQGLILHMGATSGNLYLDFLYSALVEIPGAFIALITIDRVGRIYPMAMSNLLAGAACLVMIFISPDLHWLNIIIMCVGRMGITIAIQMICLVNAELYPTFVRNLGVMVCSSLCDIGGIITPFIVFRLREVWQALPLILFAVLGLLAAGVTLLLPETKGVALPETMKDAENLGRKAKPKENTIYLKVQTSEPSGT
Experimental: ASP^+ is an organic cationic mitochondrial dye that only fluoresces inside cells so that fluorescence measured in the cell culture medium can be neglected. […] In parallel, cells were incubated with Qu (100 µM) and TEA (3 mM) as mentioned in Section 4.3. After 24 h, cells were incubated with 1 µM ASP^+ in Hanks’ balanced salt solution (HBSS, Sigma-Aldrich, Taufkirchen, Germany) at 37 °C. Fluorescence was measured after 20 min at ASP^+-specific wavelength (λex = 475 nm and λem = 605 nm) on a TecanM200Pro spectrometer (Tecan Group Ltd., Männedorf, Switzerland) according to Ahlin et al., (2008).

[3] = Cell viability (MTT assay) of HepaRG cells with and without transporter inhibitors; format: cell-based, human; conditions: human, HepaRG cells
Experimental: (§1) In the case of TEA, cells were pre-incubated 24 h prior to PA treatment. The inhibitors were applied anew at PA incubation.
(§2) To analyze the cytotoxic effects of PAs on HepaRG cells with non-inhibited and inhibited hepatic transporters, the cells were seeded at a density of 9000 cells per well in the inner 60 wells of a 96-well plate and cultivated as described in Section 4.2. After four weeks of cultivation, FBS concentration in the cell culture medium was reduced to 2% for 48 h prior incubation. Thereby, inhibitory effects of peptide growth factors from the FBS on xenobiotic-metabolizing enzymes were minimized. […] The cells were pre-incubated with pharmacological inhibitors as described in Section 4.3. […] Cell viability was analyzed via the MTT test. 10 µl MTT reagent (5 mg/mL MTT dissolved in phosphate-buffered saline, PBS) was added per well and incubated for 1 h at 37 °C. The supernatant was discarded, and the violet formazan crystals dissolved in 130 µL desorption solution (0.7% sodium dodecyl sulfate in propan-2-ol). After shaking for 20 min (under protection from light), absorbance was measured on a TecanM200Pro spectrometer (Tecan Group Ltd., Männedorf, Switzerland) at a wavelength of 570 nm, along with a reference wavelength of 630 nm.

[4] = test system: HepaRG cells; assay: as above; format: cell-based, human; conditions: for viability [%], single replicates: repl. 1-6; for Cell viability (MTT), percent of solvent control, Mean [%]: 24 h, listed as Sc
Experimental: as §1, §2

[5] = mean of 6 replicates, no inhibitor, read-out: viability, MW [%]
[6] = repl. 1-6, read-out: viability [%], single replicates

With C/C=C1/C[C@@H](C)[C@@](C)(O)C(=O)OCC2=CCN3CC[C@@H](OC1=O)[C@@H]23 [Senecionine, senecionine] the “PA in medium, single replicates (repl.)” value ([1]; no inhibitor, 0h) was 100%, the “PA in medium, single replicates (repl.)” value ([1]; plus MK-571, 0h) was 100% and the “fluorescence [%], MW [%]” value ([2]; 1 µM, solv ctrl = 100) was 90.9095%. The “fluorescence [%], MW [%]” value ([2]; 10 µM, solv ctrl = 100) was 39.1097%, the “fluorescence [%], MW [%]” value ([2]; 50 µM, solv ctrl = 100) was 27.2215% and the “fluorescence [%], MW [%]” value ([2]; 100 µM, solv ctrl = 100) was 21.3927%. For the same molecule, the “fluorescence [%], MW [%]” value ([2]; 250 µM, solv ctrl = 100) was 20.0876%, the “interaction with SLC22A1” value ([2]; HepaRG) was “both inhibitors and substrates” and the “minimum concentration inhibiting uptake of the SLC22A1-specific substrate ASP+” value ([2]; HepaRG, 24 h) was 10 µM. For the same molecule, the remaining activity at 1 µM ([2]; HepaRG, 24 h, 1 µM, solv ctrl = 100, read-out: fluorescence [%], single replicates (repl.)) was 82%, the viability at 24 h, 1 µM [3, 5] was 100% and the viability at 24 h, 1 µM [3, 6] was 95.1%. The viability at 24 h, 10 µM [3, 5] was 84.6%, the viability at 24 h, 10 µM [3, 6] was 80% and the viability at 24 h, 50 µM ([3]; 50 µM, mean of 6 replicates, no inhibitor, read-out: viability, MW [%]) was 65%. It also gave a viability at 24 h, 100 µM ([3]; 100 µM, mean of 6 replicates, no inhibitor, read-out: viability, MW [%]) of 59.7%, a viability at 24 h, 250 µM ([3]; 250 µM, mean of 6 replicates, no inhibitor, read-out: viability, MW [%]) of 48.7% and a viability at 24 h, 250 µM ([3]; HepaRG, 250 µM PA only, 24 h, read-out: Cell viability (MTT), percent of solvent control, Mean [%]) of 46%. The viability at 24 h, 250 µM ([3]; with 5 µM Ko143, HepaRG, 250 µM PA + Ko143 (5 µM, 1 h pre-incubation), 24 h, read-out: Cell viability (MTT), percent of solvent control, Mean [%]) was 46.5%, the viability at 24 h, 250 µM ([3]; with 50 µM MK-571, HepaRG, 250 µM PA + MK571 (50 µM, 1 h pre-incubation), 24 h, read-out: Cell viability (MTT), percent of solvent control, Mean [%]) was 59.1% and the viability at 24 h, 250 µM ([3]; with CsA 10 µM, HepaRG, 250 µM PA + CsA (10 µM, 1 h pre-incubation), 24 h, read-out: Cell viability (MTT), percent of solvent control, Mean [%]) was 63%. For the same molecule, the viability at 24 h, 250 µM ([3]; with Qu 100 µM, HepaRG, 250 µM PA + Qu (100 µM, 1 h pre-incubation), 24 h, read-out: Cell viability (MTT), percent of solvent control, Mean [%]) was 90%, the viability at 24 h, 250 µM ([3]; with TEA 3 mM, HepaRG, 250 µM PA + TEA (3 mM, 24 h pre-incubation), 24 h, read-out: Cell viability (MTT), percent of solvent control, Mean [%]) was 69% and the “viability [%], single replicates” value ([4]; 1 µM) was 104.702% and 96.5101% and 108.622% and 97.0096% and 97.8347%. For the same molecule, the “viability [%], single replicates” value ([4]; 10 µM) was 86.1735% and 91.8709% and 86.9963% and 83.2717% and 79.1258%, the “viability [%], single replicates” value ([4]; 50 µM) was 59.5192% and 77.2207% and 70.6602% and 63.183% and 55.3454% and the “viability [%], single replicates” value ([4]; 100 µM) was 53.5295% and 51.7769% and 80.0886% and 68.6733% and 54.6212% and 49.5185%. The “viability [%], single replicates” value ([4]; 250 µM) was 44.9713% and 47.0747% and 66.5507% and 52.719% and 45.8871% and 35.0536%, the “cytotoxicity of the applied concentration” value ([4]; HepaRG, 2.5 µM, Figure S2) was “not cytotoxic” and the “Cell viability (MTT), percent of solvent control, Mean [%]” value (“Cell viability (MTT), percent … [%]” for short) ([4]; HepaRG, 250 µM PA + CsA (10 µM, 1 h pre-incubation)) was 63.5771%. The “Cell viability (MTT), percent … [%]” value ([4]; HepaRG, 250 µM PA + Qu (100 µM, 1 h pre-incubation)) was 91.9218%, the “Cell viability (MTT), percent … [%]” value ([4]; HepaRG, 250 µM PA + TEA (3 mM, 24 h pre-incubation)) was 69.5844% and the “Cell viability (MTT), percent … [%]” value ([4]; HepaRG, 250 µM PA only) was 46.8929%.

Source: publication PMC8067754, “Active Transport of Hepatotoxic Pyrrolizidine Alkaloids in HepaRG Cells” (International Journal of Molecular Sciences, 2021)
